Experimental data: patent publication US7560443B2, “Mixtures of fructose, sucrose and lactose as a low-calorie bulk sweetener with reduced glycemic index” (Vivalac, Inc. A Maryland Corp., priority 2002, dated 2009)
Where two headings read alike, the source gives them in different places.

Legend:
human lactase = human lactase (Homo sapiens, UniProt P09848); details: in vitro; cited from earlier work
blood glucose = details: diabetic volunteers after normal insulin or oral agents, vs glucose (GI=100); cited from earlier work
rats [1] = details: cited from earlier work; for body fat lowering vs controls: pair-fed rats
plasma glucose [2] = details: untreated diabetics, Gannon et al; cited from earlier work
rats [3] = details: cited from earlier work
plasma glucose [4] = details: glucose = 100, cited from earlier work
plasma glucose [5] = test: OTT, aqueous sugar solutions (50 g in 200 g water), Subject #1; type: in vivo, human; details: Subject #1, N=3
Procedure: The test subject (Subject #1) was a person in good health, with a body mass index (BMI) equal to 28.6 kg/m^2. The subject was required to exercise moderately at least 30 minutes each day before testing, sleep at least 7 hours the previous night, and fast for no less than 12 hours prior to oral tolerance testing (OTT) early the next morning. Water was restricted 1.5 hours prior to testing, and only small sips of water were allowed infrequently during OTT. The test article, described below, was ingested as quickly as possible after the time 0 blood sample was obtained. Subsequent blood samples were taken at 30, 60, 90, 120, 150, and 180 minutes, and plasma glucose measurements were recorded in units of mg/dL immediately each time using a hand-held glucometer (At•Last model, Amira Medical, Scotts Valley, Calif. 95066). The subject abstained from food and remained sedentary during the 3-hour test. Clinical observations were noted and recorded continuously.
Test articles were aqueous solutions (in 200 g water) of 50 g of total carbohydrates, which were prepared early in the morning before the test. All of the same protocol criteria were applied for the test, as described in Example 1 above, except that times for blood samples were 0, 30, 45, 60, 90, 120, and 180 minutes. The test subjects were Subject #1, described above, and Subject #2, a healthy person (BMI=27.7 kg/m^2). […]

plasma glucose [6] = test: OTT, aqueous solutions (25 g in 100 g water), type 2 diabetic subject (DM2); type: in vivo, human
Procedure: Test articles were aqueous solutions (in 200 g water) of 50 g of total carbohydrates, which were prepared early in the morning before the test. All of the same protocol criteria were applied for the test, as described in Example 1 above, except that times for blood samples were 0, 30, 45, 60, 90, 120, and 180 minutes. The test subjects were Subject #1, described above, and Subject #2, a healthy person (BMI=27.7 kg/m^2). See FIGS. 3 and 2, respectively, for results of their OTT's.
Calculation of estimated caloric value (ECV) demands some explanation here, as the calculation requires acceptance of some reasonable assumptions: • GI values for lactose monohydrate, fructose, sucrose and oat starch are 46, 23, 64, and 100, respectively. • Caloric values for lactose monohydrate, fructose, sucrose and oat starch are 3.8, 3.7, 3.9, and 3.7 kcal/g, respectively. • The order for complete active absorption of sugar mixtures from the small intestine to the bloodstream is fructose>starch (as maltose and α-dextrins)>sucrose>lactose. • Passive absorption of unhydrolyzed disaccharides is assumed to be zero for these calculations. • Disaccharides not actively absorbed pass to the colon, where they are fully degraded by microflora. • 78% of the disaccharides form short chain fatty acids (SCFA's), which are fully absorbed and used by the body with 50%×0.85=42.5% energy efficiency vs glucose (Livesey, Int J Food Sci Nutr, 44, 221-241, 1993). • 22% of the disaccharides are converted to biomass, which is calorically unavailable to the host (Weber et al, J Lab Clin Med, 110, 259-263, 1987). • NB—Starch (not part of the sweetener) which passes to the colon and is degraded microbially subtracts energy value from the sweetener, a component of which (lactose) caused it to pass to the colon.
The type 2 diabetic subject (DM2) was a person (BMI=32.8 kg/m^2), who was trying to control their diabetes without insulin or oral medications. Their daily drug regimen included Premarin®, Prempro®, Xenical®, and Lipitor®, all taken after OTT was completed each day. […]

human sucrase = human sucrase (Homo sapiens, UniProt P14410); details: in vitro; cited from earlier work
maltase = details: in vitro; cited from earlier work
rabbit sucrase = rabbit sucrase (Oryctolagus cuniculus, UniProt P07768); details: in vitro; cited from earlier work
human small intestine = details: cited from earlier work
rabbit maltase = details: in vitro; cited from earlier work
[7] = pair-feeding, lactose 30% of diet (Février 1969)
[8] = weanling male rats, 12% lactose, six weeks (Ali and Evans 1971)

human lactase, sequence (P09848 869-1927): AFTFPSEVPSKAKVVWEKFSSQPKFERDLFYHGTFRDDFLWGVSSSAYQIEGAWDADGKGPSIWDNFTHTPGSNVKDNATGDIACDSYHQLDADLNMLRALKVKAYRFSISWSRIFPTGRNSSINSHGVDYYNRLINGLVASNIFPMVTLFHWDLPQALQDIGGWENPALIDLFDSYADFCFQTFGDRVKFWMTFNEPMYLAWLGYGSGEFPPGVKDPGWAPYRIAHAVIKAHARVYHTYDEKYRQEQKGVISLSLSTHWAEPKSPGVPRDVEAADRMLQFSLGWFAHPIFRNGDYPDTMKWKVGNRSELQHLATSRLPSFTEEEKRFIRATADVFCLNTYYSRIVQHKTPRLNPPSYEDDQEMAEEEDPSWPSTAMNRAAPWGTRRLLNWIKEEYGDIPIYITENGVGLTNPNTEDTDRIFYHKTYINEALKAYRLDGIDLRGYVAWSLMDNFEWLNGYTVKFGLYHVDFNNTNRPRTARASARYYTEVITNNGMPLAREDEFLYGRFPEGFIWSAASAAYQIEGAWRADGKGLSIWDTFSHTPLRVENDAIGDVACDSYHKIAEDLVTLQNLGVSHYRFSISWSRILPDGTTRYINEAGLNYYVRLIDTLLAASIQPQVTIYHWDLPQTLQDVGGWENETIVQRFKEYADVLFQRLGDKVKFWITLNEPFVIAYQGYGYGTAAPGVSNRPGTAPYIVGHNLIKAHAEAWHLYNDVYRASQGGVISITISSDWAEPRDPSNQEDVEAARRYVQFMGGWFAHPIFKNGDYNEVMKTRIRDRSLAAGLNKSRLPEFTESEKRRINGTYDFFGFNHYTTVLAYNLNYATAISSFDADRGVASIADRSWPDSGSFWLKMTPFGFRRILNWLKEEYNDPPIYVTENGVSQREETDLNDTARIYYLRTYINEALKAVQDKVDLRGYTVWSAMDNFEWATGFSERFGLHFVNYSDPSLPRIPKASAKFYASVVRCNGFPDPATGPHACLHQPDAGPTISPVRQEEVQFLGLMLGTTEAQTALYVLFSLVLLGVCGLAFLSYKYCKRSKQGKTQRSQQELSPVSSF
human sucrase, sequence (P14410 whole entry): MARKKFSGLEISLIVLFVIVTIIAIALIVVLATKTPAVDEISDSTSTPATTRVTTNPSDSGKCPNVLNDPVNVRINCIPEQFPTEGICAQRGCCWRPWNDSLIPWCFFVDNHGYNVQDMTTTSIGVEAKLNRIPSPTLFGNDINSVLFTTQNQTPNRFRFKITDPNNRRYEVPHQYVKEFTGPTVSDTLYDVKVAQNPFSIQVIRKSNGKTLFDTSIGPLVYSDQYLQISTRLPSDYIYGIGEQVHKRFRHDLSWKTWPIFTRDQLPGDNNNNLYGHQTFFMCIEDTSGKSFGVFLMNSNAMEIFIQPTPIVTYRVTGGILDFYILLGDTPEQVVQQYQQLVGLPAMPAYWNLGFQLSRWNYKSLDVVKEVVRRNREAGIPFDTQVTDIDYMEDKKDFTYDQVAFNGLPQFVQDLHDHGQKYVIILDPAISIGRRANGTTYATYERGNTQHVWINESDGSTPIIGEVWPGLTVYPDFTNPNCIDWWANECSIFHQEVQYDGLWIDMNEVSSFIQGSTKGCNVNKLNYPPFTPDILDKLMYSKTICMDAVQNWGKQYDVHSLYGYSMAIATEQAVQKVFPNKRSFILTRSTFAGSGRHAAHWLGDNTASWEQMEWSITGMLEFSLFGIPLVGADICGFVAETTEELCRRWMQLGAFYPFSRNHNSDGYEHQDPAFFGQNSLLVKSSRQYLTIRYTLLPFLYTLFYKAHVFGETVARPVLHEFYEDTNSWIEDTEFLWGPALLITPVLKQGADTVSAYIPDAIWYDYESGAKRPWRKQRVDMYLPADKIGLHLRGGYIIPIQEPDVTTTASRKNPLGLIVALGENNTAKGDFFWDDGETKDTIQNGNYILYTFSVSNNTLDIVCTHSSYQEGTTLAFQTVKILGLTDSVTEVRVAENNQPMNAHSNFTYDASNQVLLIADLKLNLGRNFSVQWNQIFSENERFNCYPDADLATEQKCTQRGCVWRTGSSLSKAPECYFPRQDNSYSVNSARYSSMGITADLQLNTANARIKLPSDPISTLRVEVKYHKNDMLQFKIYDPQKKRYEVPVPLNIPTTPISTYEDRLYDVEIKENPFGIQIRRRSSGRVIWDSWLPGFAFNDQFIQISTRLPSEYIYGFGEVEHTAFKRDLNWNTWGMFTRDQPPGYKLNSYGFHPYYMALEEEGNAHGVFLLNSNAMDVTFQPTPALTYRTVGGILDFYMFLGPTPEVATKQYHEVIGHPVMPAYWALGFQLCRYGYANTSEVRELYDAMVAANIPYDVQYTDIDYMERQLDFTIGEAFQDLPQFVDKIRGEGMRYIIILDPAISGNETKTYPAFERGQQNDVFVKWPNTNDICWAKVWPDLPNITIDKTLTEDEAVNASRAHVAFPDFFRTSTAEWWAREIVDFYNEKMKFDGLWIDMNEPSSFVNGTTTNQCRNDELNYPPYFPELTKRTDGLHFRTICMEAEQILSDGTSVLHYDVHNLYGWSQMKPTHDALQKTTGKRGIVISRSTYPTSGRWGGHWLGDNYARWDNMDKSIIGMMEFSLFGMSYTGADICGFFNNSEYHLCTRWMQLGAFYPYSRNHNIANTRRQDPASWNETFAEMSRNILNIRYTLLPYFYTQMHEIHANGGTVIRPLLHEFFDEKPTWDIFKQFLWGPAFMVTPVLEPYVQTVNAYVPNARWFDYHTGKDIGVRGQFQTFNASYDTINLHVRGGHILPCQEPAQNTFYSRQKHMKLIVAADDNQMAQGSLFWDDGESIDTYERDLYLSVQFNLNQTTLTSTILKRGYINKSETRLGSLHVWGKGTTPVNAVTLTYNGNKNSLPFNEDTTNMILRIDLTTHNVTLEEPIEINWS
rabbit sucrase, sequence (P07768 whole entry): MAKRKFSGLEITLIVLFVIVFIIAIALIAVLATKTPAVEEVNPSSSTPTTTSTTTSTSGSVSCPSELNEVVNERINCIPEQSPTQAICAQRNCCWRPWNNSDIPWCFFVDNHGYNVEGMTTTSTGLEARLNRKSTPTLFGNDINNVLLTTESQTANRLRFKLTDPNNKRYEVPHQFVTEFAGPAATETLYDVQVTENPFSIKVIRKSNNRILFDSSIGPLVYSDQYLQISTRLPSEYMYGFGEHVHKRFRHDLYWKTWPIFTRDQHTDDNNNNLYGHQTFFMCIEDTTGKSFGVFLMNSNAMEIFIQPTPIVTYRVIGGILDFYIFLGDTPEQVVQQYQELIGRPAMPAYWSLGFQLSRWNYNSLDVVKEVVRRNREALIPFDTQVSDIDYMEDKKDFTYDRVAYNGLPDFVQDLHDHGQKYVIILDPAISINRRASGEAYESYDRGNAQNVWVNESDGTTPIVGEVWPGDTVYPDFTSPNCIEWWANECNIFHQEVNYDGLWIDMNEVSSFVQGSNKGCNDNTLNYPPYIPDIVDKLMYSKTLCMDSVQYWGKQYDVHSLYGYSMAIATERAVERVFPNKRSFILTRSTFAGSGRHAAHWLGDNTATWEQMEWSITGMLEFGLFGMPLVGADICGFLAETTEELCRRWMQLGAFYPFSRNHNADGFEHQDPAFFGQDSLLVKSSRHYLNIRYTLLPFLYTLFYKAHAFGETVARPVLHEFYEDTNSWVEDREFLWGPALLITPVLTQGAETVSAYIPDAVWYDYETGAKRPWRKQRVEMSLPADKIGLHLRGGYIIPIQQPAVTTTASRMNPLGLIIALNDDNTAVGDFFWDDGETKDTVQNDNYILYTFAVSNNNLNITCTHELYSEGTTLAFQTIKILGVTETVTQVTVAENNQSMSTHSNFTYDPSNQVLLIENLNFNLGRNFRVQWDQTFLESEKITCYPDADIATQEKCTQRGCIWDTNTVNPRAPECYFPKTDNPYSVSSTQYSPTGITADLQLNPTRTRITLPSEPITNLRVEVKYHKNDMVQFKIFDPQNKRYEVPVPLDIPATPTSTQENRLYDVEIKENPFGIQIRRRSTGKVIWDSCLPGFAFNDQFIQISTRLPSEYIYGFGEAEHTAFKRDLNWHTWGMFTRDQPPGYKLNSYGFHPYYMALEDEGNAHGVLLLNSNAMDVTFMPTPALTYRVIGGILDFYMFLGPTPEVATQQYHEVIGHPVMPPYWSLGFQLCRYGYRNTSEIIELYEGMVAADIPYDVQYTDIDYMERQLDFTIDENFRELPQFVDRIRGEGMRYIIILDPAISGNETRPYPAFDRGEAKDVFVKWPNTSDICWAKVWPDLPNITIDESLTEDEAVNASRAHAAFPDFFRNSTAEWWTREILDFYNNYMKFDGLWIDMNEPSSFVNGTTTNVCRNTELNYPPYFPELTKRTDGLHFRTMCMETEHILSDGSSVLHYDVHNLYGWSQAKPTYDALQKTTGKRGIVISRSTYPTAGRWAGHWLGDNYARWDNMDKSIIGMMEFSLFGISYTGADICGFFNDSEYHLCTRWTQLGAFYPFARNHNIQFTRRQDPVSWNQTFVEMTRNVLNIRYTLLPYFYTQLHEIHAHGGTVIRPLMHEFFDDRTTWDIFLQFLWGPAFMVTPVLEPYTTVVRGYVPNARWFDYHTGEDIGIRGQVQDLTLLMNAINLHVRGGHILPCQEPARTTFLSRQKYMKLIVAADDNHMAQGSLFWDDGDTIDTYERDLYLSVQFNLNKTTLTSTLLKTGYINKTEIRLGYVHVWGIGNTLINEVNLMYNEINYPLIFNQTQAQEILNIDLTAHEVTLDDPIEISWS

Q: For `OC[C@H]1O[C@H](O[C@H]2[C@H](O)[C@@H](O)[C@H](O)O[C@@H]2CO)[C@H](O)[C@@H](O)[C@@H]1O` [maltose], which “inhibition of lactose hydrolysis by human lactase” value (shortened to “inhibition of lactose hydrolysis”) (human lactase) is on record?
A: no inhibiting effect

Q: What does the source list for `OC[C@H]1O[C@@H](O[C@H]2[C@H](O)[C@@H](O)C(O)O[C@@H]2CO)[C@H](O)[C@@H](O)[C@H]1O` (some centres unmarked) [lactose]?
A: glycemic index (GI) (blood glucose): 48; reduction of fat content (rats [1]; ad libitum feeding, lactose 30% of diet (Février 1969)): 20%; reduction of growth rate (rats [1]; ad libitum feeding, lactose 30% of diet vs starch control (Février 1969)): 37%; reduction of fat content (rats [1]; equalized-growth-feeding, lactose 30% of diet (Février 1969)): 12%; body fat lowering vs controls (rats [1]; lactose 30% of diet (Whittier et al 1935)): 38%; body fat lowering vs controls (rats [1]; lactose 50% of diet (Baker et al 1967)): 48%; body fat lowering vs controls (rats [1]; lactose 52% of diet (Tomarelli et al 1960)): 40%; reduction of fat content (rats [1]; [7]): 32%; reduction of growth rate (rats [1]; [7]): 23%; body fat reduction (rats [1]; [8]): 30%; body moisture increase (rats [1]; [8]): 11%; GI values (plasma glucose [2]): 32; relative availability compared to glucose (rats [3]; bioassay based on plasma ketones): 0.59; relative availability compared to glucose (rats [3]; bioassay based on weight gain): 0.57; metabolizable energy value (rats [3]): 2.1 kcal/g; glycemic index (GI) (plasma glucose [4]): 46

Q: With `OC[C@H]1O[C@@](CO)(O[C@H]2O[C@H](CO)[C@@H](O)[C@H](O)[C@H]2O)[C@@H](O)[C@@H]1O` [sucrose] as the compound, how does the “glycemic index (GI)” value (blood glucose) read?
A: 63

Q: And the “inhibition of lactose hydrolysis” value (human lactase)?
A: no inhibiting effect

Q: What about the GI values (plasma glucose [2]) of the same compound?
A: 43

Q: And the AUC (plasma glucose [5])?
A: 2935 mg·min/dL

Q: And the “plasma glucose level relative to 200 mg/dL” value (plasma glucose [6])?
A: broke above 200 mg/dL

Q: And the “time of plasma glucose peak” value (plasma glucose [6])?
A: 45 min

Q: What about the AUC (plasma glucose [6]; 25 g in 100 g water, N=2) of the same compound?
A: 6184 mg·min/dL

Q: What about the “glycemic index (GI)” value (plasma glucose [4]) of the same compound?
A: 64

Q: What about the “glycemic index (GI)” value (plasma glucose [4]; listed as SU) of the same compound?
A: 64

Q: For `O=C(CO)[C@@H](O)[C@H](O)[C@H](O)CO` [fructose], which “inhibition of sucrose hydrolysis by human sucrase” value (human sucrase) is on record?
A: inhibit

Q: And the “glycemic index (GI)” value (blood glucose)?
A: 24

Q: And the “inhibition of lactose hydrolysis” value (human lactase)?
A: competitively inhibit

Q: What about the GI values (plasma glucose [2]) of the same compound?
A: 6

Q: And the “inhibition of maltose hydrolysis by maltase” value (maltase)?
A: no inhibiting effect

Q: What about the “glycemic index (GI)” value (plasma glucose [4]) of the same compound?
A: 23

Q: For `O=C[C@H](O)[C@@H](O)[C@@H](O)[C@H](O)CO` [galactose], which “inhibition of sucrose hydrolysis by human sucrase” value (human sucrase) is on record?
A: no inhibition

Q: And the “inhibition of rabbit sucrase” value (rabbit sucrase)?
A: no inhibition

Q: What about the “inhibition of lactose hydrolysis” value (human lactase) of the same compound?
A: competitively inhibit

Q: What about the “absorption rate relative to fructose” value (human small intestine) of the same compound?
A: ~1.2 times as fast as fructose

Q: What about the “inhibition of rabbit maltase” value (rabbit maltase) of the same compound?
A: no inhibition

Q: And the “inhibition of maltose hydrolysis by maltase” value (maltase)?
A: no inhibiting effect
